# Tests used:
# [1] = tested on: CYP1A1; assay: Induction of CYP1A1 protein expression in HepG2 (7-ethoxyresorufin/resorufin); type: cell-based, Human; conditions: HepG2, 1 μM, 24 hours, vs control (vehicle)
# Method: After recovering HepG2 under culture in DMEM-fetal bovine serum (FBS) 10% medium and then confirming that the survival rate is 97% or more through trypan blue staining, the recovered product was centrifuged at a speed of 1200 rpm for 5 minutes at room temperature, and the cells were prepared by resuspending them in DMEM-fetal calf serum 10% medium at 1.5×10^5 cells/ml.
# Thereafter, the cells were dispensed onto a 96-well plate by 200 μl, and each plate was treated with 3 μl of Compounds 6, 21, 32 and 39 at a concentration of 1 μM diluted in DMEM medium, and then cultured in a cell incubator (5% CO2 incubator) for 24 hours. As a control, 3 μl of 0.05% dimethylsulfoxide (DMSO)/DMEM medium was used for treatment.
# After 24 hours, the medium of the plate was discarded, washed with dPBS, treated with 100 μl of 2 μM 7-ethoxyresorufin, and cultured in a cell incubator (5% CO2 incubator) for 30 minutes. After 30 minutes, each 75 μl of fluorescamine (150 μg/ml) was treated, then resorufine excitation was measured at 535 nm and emission at 590 nm. The standard curve was measured and used with 0 to 50 pmol of resorufin solution.
# After measurement, all solutions were removed, followed by treating the same with 25 μl of 0.5 M sodium hydroxide (NaOH), the cells were scraped and reacted in a shaker at room temperature for 15 minutes.
# After 15 minutes, protein was quantified using a Bradford method, and a value was obtained using a calculation formula (sample resorufin amount/sample protein amount), and then one (1) fold was set using the control.
# [2] = tested on: IL-6; assay: IL-6 production of A549 epithelial cells by IL-1β stimulation; type: cell-based, Human; conditions: A549, 5 μM, 48 hours then IL-1β 24 hours, vs control
# Method: In order to assess the inhibitory effects of production of IL-6 by the compounds of the present invention prepared as above, an IL-6 production test of epithelial cells by stimulation of IL-1β was performed.
# After recovering A549 cells under culture in DMEM-fetal bovine serum (FBS) 10% medium and confirming that the survival rate is 97% or more through trypan blue staining, the recovered product was centrifuged at a speed of 1200 rpm for 5 minutes at room temperature, and the cells were prepared by resuspending them in DMEM-10% fetal bovine serum medium at 1×10^6 cells/3 ml. Thereafter, the cells were dispensed by 3 ml onto a 60 mm plate, and each dish was treated with 50 μl of Compounds 6, 9, 21, 32 and 39 at a concentration of 5 μM diluted in DMEM medium, and then cultured in a cell incubator (5% CO2 incubator) for 48 hours. Then, the cells were treated with 50 μl of human recombinant IL-1β at a concentration of 12.5 ng/ml diluted in DMEM medium, followed by culturing the same in a cell incubator (5% CO2 incubator) for 24 hours. As a control, 50 μl of 0.05% dimethylsulfoxide (DMSO)/DMEM medium was used for treatment.
# (§1) The cultured cells were recovered to prepare an mRNA sample. […] From the separated RNA, cDNA was synthesized by reverse transcription, and the expression of CYP1A1 was confirmed through a real-time polymerase chain reaction (PCR) using iQ SYBR-Green Supermix (Bio-rad) in a CFX96 (Bio-rad) detection system. […] Herein, one (1) fold was set using the control.
# (§2) The real-time polymerase chain reaction was performed under the conditions of 45 cycles at an annealing temperature of 58° C., wherein the following primer sequences were used.
# [3] = tested on: CYP1A1; assay: Induction of CYP1A1 mRNA expression in HepG2 (real-time PCR); type: cell-based, Human; conditions: HepG2, 1 μM, 24 hours, vs control (vehicle)
# Method: In order to confirm target specificity of the compounds of an embodiment of the present invention prepared as above, it was confirmed whether the expression levels of CYP1A1 mRNA and CYP1A1 protein, which are AHR target genes, were increased.
# After recovering HepG2 under culture in DMEM-fetal bovine serum (FBS) 10% medium and then confirming that the survival rate is 97% or more through trypan blue staining, the recovered product was centrifuged at a speed of 1200 rpm for 5 minutes at room temperature, and the cells were prepared by resuspending them in DMEM-fetal calf serum 10% medium at 3×10^5 cells/ml. Thereafter, the cells were dispensed onto a 60 mm dish by 3 ml, and each dish was treated with 50 μl of Compounds 6, 21, 32 and 39 at a concentration of 1 μM diluted in DMEM medium, and then cultured in a cell incubator (5% CO2 incubator) for 24 hours. As a control, 50 μl of 0.05% dimethylsulfoxide (DMSO)/DMEM medium was used for treatment.
# as §1, §2
# [4] = tested on: Foxp3-expressing regulatory T cells (Treg); assay: Production of Foxp3-expressing regulatory T cells from naive CD4 T cells (flow cytometry); type: cell-based, C57BL/6 mice; conditions: 2.5 μM, 3 days, compared to Vehicle
# Method: The spleen of C57BL/6 mice (8 to 12 weeks old, female) was excised, pulverized by adding RPMI medium, and then passed through a 40 μm cell strainer (BD Falcon), thereby obtaining a single cell suspension. The single cell suspension was centrifuged (1200 rpm, 5 minutes), and after discarding the supernatant, 1 ml of ACK lysis buffer was added, followed by stirring for 1 minute and then washing the same with RPMI medium. After the single cell suspension was centrifuged, T-cells were separated using a Mouse CD4 Naive T cell Enrichment Kit (Invitrogen). The separated T-cells were prepared by resuspending them in RPMI-fetal bovine serum (FBS) 10%+2-ME (mercaptoethanol) medium at 1×10^6/ml. For T-cell activation, 5 μg/ml anti-CD3 (eBioscience™) was dispensed by 100 μl onto a 96-well plate, reacted in a cell incubator (37° C., 5% CO2 incubator) for 4 hours, and washed with phosphate buffered saline to prepare the plate. The T-cells were dispensed by 200 μl onto the prepared plate, and each well was treated with 2 μg/ml of anti-CD28 (eBioscience™), 2 ng/ml of TGFβ-1 (R&D systems), and 100 U/ml of IL-2. Each 5 μl of Compounds 6 and 9 at a concentration of 2.5 μM diluted in RPMI-fetal bovine serum 10%+2-ME medium was used for treatment, followed by culturing the same in a cell incubator (37° C., 5% CO2 incubator) for 3 days. […]
# In order to confirm the expression of Foxp3 protein, the recovered cells were placed in a 5 ml FACS tube (BD Falcon) and washed with 1 ml of phosphate buffered saline. […] The cells were washed twice with the Permeabilization buffer, suspended in 0.3 ml of FACS buffer, and measured by flow cytometry.
# The promotion effects of Compound 6 and Comparative Example 1 on the production of “FoxP3-expressing regulatory T cells,” which play an important role in maintaining immune tolerance, were compared (FIG. 24). […] After 3 days, in order to confirm the effects of production of the regulatory T cells, the cultured cells were recovered and Foxp3 protein expression was measured in the same manner as in FIG. 4.
# [5] = biological target: CYP2C9 (Homo sapiens, UniProt P11712); assay: CYP isoenzyme activity; type: in vitro ADME; conditions: 0.1 μM
# Chain of CYP2C9 (P11712 whole entry): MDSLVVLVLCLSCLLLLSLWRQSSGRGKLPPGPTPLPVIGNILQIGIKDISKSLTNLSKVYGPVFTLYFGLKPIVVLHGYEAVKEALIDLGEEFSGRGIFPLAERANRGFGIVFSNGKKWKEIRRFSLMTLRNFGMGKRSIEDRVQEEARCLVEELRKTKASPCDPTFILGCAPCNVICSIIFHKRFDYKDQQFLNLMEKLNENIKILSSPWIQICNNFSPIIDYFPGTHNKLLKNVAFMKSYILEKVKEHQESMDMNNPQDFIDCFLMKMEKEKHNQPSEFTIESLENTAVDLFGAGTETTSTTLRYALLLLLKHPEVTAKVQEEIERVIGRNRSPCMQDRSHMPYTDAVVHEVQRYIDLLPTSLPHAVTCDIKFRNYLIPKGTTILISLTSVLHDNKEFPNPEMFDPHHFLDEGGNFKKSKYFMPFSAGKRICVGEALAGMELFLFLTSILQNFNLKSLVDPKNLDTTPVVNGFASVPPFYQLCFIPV
# [6] = biological target: T1, CYP1A2 (Homo sapiens, UniProt P05177); assay: CYP isoenzyme activity; type: in vitro ADME; conditions: 0.1 μM
# T1 sequence (P05177 1-516): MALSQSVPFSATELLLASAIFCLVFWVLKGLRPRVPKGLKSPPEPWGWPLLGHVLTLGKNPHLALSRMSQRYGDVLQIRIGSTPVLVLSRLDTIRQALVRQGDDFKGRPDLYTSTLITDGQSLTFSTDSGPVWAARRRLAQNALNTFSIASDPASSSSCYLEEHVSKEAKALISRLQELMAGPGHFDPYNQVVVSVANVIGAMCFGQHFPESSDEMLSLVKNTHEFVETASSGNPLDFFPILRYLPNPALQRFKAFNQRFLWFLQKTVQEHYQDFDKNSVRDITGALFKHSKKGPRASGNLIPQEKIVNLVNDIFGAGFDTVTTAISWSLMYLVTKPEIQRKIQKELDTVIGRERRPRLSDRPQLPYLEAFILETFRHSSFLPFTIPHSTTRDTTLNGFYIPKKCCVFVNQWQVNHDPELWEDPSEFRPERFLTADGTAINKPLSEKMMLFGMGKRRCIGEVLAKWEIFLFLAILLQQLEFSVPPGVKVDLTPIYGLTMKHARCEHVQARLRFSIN
# [7] = biological target: CYP2C19 (Homo sapiens, UniProt P33261); assay: CYP isoenzyme activity; type: in vitro ADME; conditions: 0.1 μM
# Chain of CYP2C19 (P33261 whole entry): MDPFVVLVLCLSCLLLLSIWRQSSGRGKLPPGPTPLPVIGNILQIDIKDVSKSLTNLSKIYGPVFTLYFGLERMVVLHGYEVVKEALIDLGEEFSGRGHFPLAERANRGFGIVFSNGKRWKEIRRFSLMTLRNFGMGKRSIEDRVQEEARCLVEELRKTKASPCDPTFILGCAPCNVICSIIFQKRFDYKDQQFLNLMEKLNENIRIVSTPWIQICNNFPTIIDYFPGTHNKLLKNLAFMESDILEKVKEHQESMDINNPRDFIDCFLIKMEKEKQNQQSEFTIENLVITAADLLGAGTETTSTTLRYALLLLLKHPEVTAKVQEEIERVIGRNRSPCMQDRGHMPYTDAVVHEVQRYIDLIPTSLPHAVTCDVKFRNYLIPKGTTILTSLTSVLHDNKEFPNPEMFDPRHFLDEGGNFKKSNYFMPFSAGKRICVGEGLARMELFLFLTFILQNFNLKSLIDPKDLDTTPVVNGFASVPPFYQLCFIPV
Compound,CYP1A1 protein expression level [1],IL-6 production of A549 by IL-1β stimulation [2],CYP1A1 mRNA expression level [3],production of Foxp3-expressing regulatory T cells [4],CYP2C9 activity [5],CYP1A2 activity [6],CYP2C19 activity [7]
"O=C(Cc1c[nH]c2ccc(O)cc12)Nc1nc2ccc(N3CCOCC3)cc2s1 [Compound 32, 2-(5-hydroxy-1H-indol-3-yl)-N-(6-morpholinobenzo[d]thiazol-2-yl)acetamide]",significantly higher,significantly reduced,significantly induced,,,,
"CN1CCN(c2ccc3nc(NC(=O)Cc4c[nH]c5ccc(Cl)cc45)sc3c2)CC1 [Compound 9, 2-(5-chloro-1H-indol-3-yl)-N-(6-(4-methylpiperazine-1-yl)benzo[d]thiazol-2-yl)acetamide]",,significantly reduced,,markedly increased,,,
CC(=O)N1CCN(c2ccc(OCC3COC(Cn4ccnc4)(c4ccc(Cl)cc4Cl)O3)cc2)CC1 (centres unmarked) [Ketoconazole],,,,,98.6 % of Control Activity,95.4 % of Control Activity,96.7 % of Control Activity
"COc1ccc2[nH]cc(CC(=O)Nc3nc4ccc(N5CCOCC5)cc4s3)c2c1 [Compound 39, 2-(5-methoxy-1H-indol-3-yl)-N-(6-morpholinobenzo[d]thiazol-2-yl)acetamide]",significantly higher,significantly reduced,significantly induced,,,,
"Cn1cc(CC(=O)Nc2nc3ccc(N4CCOCC4)cc3s2)c2cc(Cl)ccc21 [Compound 21, 2-(5-chloro-1-methyl-1H-indol-3-yl)-N-(6-morpholinobenzo[d]thiazol-2-yl)acetamide]",significantly higher,significantly reduced,significantly induced,,,,

# Reference: patent publication US12187717B2, “Compound and use thereof in treating autoimmune diseases” (PARENCHYMA BIOTECH INC., priority 2022, dated 2025)
